In US12521393B2, “Cytotoxicity targeting chimeras for CCR2-expressing cells” (GLAXOSMITHKLINE INTELLECTUAL PROPERTY DEVELOPMENT LIMITED, priority 2021, dated 2026):

Tests used:
[1] = target: T1, CHOK1 cells engineered to overexpress human CCR2 (Homo sapiens, UniProt P41597); assay: Antibody dependent cellular cytotoxicity (ADCC) reporter assay (Example 199); type: cell-based; details: with anti-cotinine antibody (SEQ ID NO: 11/12), Jurkat FcγRIIIa NFAT-luciferase reporter cells, 12-18 hours, EC50 in molar, average or individual runs; for EC50: read-out: ADCC Reporter Assay pEC50 (converted)
T1 construct: expressed in transfected cells; host or cells: CHOK1
Method: An antibody dependent cellular cytoxocity reporter assay was conducted using the following four assay components: (i) ARM compound of Formula (I) targeting CCR2 (concentrations ranging from […] to 10 μM) (ii) anti-cotinine antibody having a heavy chain sequence of SEQ ID NO: 11 and a light chain sequence of SEQ ID NO: 12 (rabbit variable region with human IgG1 Fc domain containing a DE mutation (S239D/1332E)) (concentrations ranging from 0.01 μg/mL to 200 μg/mL); (iii) target cells: CHOK1 cells engineered to overexpress either human CCR2 (typically 1000-20,000 cells per well) and (iv) reporter cells: Jurkat cells engineered to express FcγRIIIa with the reporter gene luciferase under the control of the NFAT promoter (typically 3000-75,000 cells per well). Reagents were combined in a final volume of 20 μL in a 384-well tissue culture treated plate. All four assay components were incubated together for about 12-18 hours. Thereafter, BioGlo Detection reagent (Promega) was added to the wells to lyse the cells and provide a substrate for the luciferase reporter protein. Luminescence signal was measured on a microplate reader and signal: background was calculated by dividing the signal of a test well by the signal obtained when no heterobivalent compound of Formula (I) was added. EC50 calculations were done using Graphpad Prism Software, specifically a nonlinear regression curve fit (Y=Bottom+(Top−Bottom)/(1+10A((LogEC50−X)*HillSlope))).
ARMs compounds of Formula (I) of the invention were tested for ADCC activity in the above assay in or more experimental runs and the results are shown in Table 3 below. Potency of the compounds of Formula (I) of the invention is reported as a pEC50 value. The pEC50 value is the negative log of the EC50 value, wherein the EC50 value is the half maximal effective concentration measured in molar (M). For compounds tested in more than one experimental run, the pEC50 value is reported as an average.

[2] = test system: endogenous target monocytes in human PBMC; assay: PBMC ex vivo monocyte depletion flow cytometry assay (Example 200); type: cell-based; details: with anti-cotinine antibody (SEQ ID NO: 11/12), 18-24 hours, EC50 in molar, read-out: Ex Vivo Depletion Assay pEC50 (converted)
Outline: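 Monocyte depletion is reported as pEC50, averaged or given individually across runs, and read by flow cytometry staining CD45, CD14 and CD4 with a viability dye. Compounds, diluted four-fold over 11 points from 1 mM DMSO stocks, were combined with 30 μg/mL Fc-enhanced anti-cotinine antibody and human PBMC, then incubated 18-24 h at 37° C.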

[3] = test system: CCR2 expressing cells (CD11b+Ly6c+Hi) in peripheral blood; assay: In vivo depletion assay, flow cytometry of peripheral blood (Example 201); design: species or system human CCR2 knock-in mice (C57 background); details: hCCR2 knock-in mice, IV 0.1 mpk compound + 10 mpk anti-cotinine antibody (SEQ ID NO: 13/14), peripheral blood at 48 hr
Outline: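 Mice dosed with compound formulated in saline/DMSO/PBS, with anti-cotinine antibody (rabbit variable region, mouse IgG2a Fc) where required, pre-incubated 30 min at room temperature. Terminal peripheral blood RBC-lysed, Fc-blocked, stained for CD45, CD3, CD11b, Ly6C, human CCR2 and 7AAD; percent depletion of CD11b+Ly6c+Hi cells determined by flow cytometry.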

[4] = target: anti-cotinine antibody (SEQ ID NO: 11/12, rabbit variable region with human IgG1 Fc DE mutation); assay: SPR binding of anti-cotinine antibody to ARM compounds, Biacore T200, 37° C. (Example 202); details: SPR Biacore T200, 37° C., pH 7.4, antibody SEQ ID NO: 11/12 captured on protein A; Kd in molar
Outline: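 Antibody captured on a protein A chip; ARM compounds injected at 100 μL/min (200 s association, 2000 s dissociation), 3-fold 5-point series from 200 nM, at 37 °C in HEPES pH 7.4 buffer with 0.005% P20 and 1% DMSO. Double-referenced sensorgrams fit 1:1 for kon, koff, Kd (koff/kon), residence time (1/koff); pKd averaged across runs.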

| Compound | EC50 [1] [nM] | EC50 [2] [nM] | ADCC Reporter Assay pEC50 [1] | % Depletion of CCR2 expressing cells [3] [%] | pKd of Antibody for ARM Compound of Formula (I) [4] |
| --- | --- | --- | --- | --- | --- |
| CC(C)N(C)[C@@H]1CC[C@H](N2CC[C@H](Nc3ncnc4ccc(C(F)(F)F)cc34)C2=O)[C@H](NC(=O)C2CCC(N3CCC(S(=O)(=O)NCCCCCCNC(=O)[C@H]4CC(=O)N(C)[C@@H]4c4cccnc4)CC3)CC2)C1 (single isomer, unassigned) [Example 149] | 0.251 | 0.251 | – | – | – |
| CC(C)N(C)[C@@H]1CC[C@H](N2CC[C@H](Nc3ncnc4ccc(C(F)(F)F)cc34)C2=O)[C@H](NC(=O)CCOCCOCCOCCOCCOCCOCCOCCOCCOCCOCCOCCOCCOCCOCCOCCOCCOCCOCCOCCOCCOCCOCCOCCNC(=O)C2CC(=O)N(C)C2c2cccnc2)C1 (stereo in doubt) [Example 43, (2R,3R)-N-(72-(((1R,2S,5R)-5-(isopropyl(methyl)amino)-2-((S)-2-oxo-3-((6-(trifluoromethyl)quinazolin-4-yl)amino)pyrrolidin-1-yl)cyclohexyl)amino)-72-oxo-3,6,9,12,15,18,21,24,27,30,33,36,39,42,45,48,51,54,57,60,63,66,69-tricosaoxadoheptacontyl)-1-methyl-5-oxo-2-(pyridin-3-yl)pyrrolidine-3-carboxamide] | – | – | 8.8 | – | – |
| CC(C)N(C)[C@@H]1CC[C@H](N2CC[C@H](Nc3ncnc4ccc(C(F)(F)F)cc34)C2=O)[C@H](NC(=O)CCOCCOCCOCCOCCNC(=O)[C@H]2CC(=O)N(C)[C@@H]2c2cccnc2)C1 [Example 39, (2S,3S)-N-(15-(((1R,2S,5R)-5-(Isopropyl(methyl)amino)-2-((S)-2-oxo-3-((6-(trifluoromethyl)quinazolin-4-yl)amino)pyrrolidin-1-yl)cyclohexyl)amino)-15-oxo-3,6,9,12-tetraoxapentadecyl)-1-methyl-5-oxo-2-(pyridin-3-yl)pyrrolidine-3-carboxamide] | 15.8 | 2510 | – | – | – |
| CC(C)N(C)[C@@H]1CC[C@H](N2CC[C@H](Nc3ncnc4ccc(C(F)(F)F)cc34)C2=O)[C@H](N[C@H]2CC[C@@H](C(=O)NCCOCCOCCOCCOCCNC(=O)[C@H]3CC(=O)N(C)[C@@H]3c3cccnc3)CC2)C1 [Example 67] | 5.01 | 3.98 | – | – | – |
| CC(C)N(C)[C@@H]1CC[C@H](N2CC[C@H](Nc3ncnc4ccc(C(F)(F)F)cc34)C2=O)[C@H](NC(=O)C2CCN(C3CCN(C(=O)CCCCCCCCCNC(=O)[C@@H]4CC(=O)N(C)[C@H]4c4cccnc4)CC3)CC2)C1 [Example 157, N-((1R,2S,5R)-5-(Isopropyl(methyl)amino)-2-((S)-2-oxo-3-((6-(trifluoromethyl)quinazolin-4-yl)amino)pyrrolidin-1-yl)cyclohexyl)-1′-(10-((2R,3R)-1-methyl-5-oxo-2-(pyridin-3-yl)pyrrolidine-3-carboxamido)decanoyl)-[1,4′-bipiperidine]-4-carboxamide] | – | 0.631 | – | 79 | 10.135 |
| CC(C)N(C)[C@@H]1CC[C@H](N2CC[C@H](Nc3ncnc4ccc(C(F)(F)F)cc34)C2=O)[C@H](NC(=O)CCOCCNC(=O)COCCNC(=O)CCOCCNC(=O)[C@H]2CC(=O)N(C)[C@@H]2c2cccnc2)C1 [Example 163, (2S,3S)-N-(19-(((1R,2S,5R)-5-(Isopropyl(methyl)amino)-2-((S)-2-oxo-3-((6-(trifluoromethyl)quinazolin-4-yl)amino)pyrrolidin-1-yl)cyclohexyl)amino)-6,12,19-trioxo-3,10,16-trioxa-7,13-diazanonadecyl)-1-methyl-5-oxo-2-(pyridin-3-yl)pyrrolidine-3-carboxamide] | – | 0.871 | – | 89 | 9.07 |
| CC(C)N(C)[C@@H]1CC[C@H](N2CC[C@H](Nc3ncnc4ccc(C(F)(F)F)cc34)C2=O)[C@H](NC(=O)CCCNc2c(NCCOCCOCCOCCOCCNC(=O)[C@H]3CC(=O)N(C)[C@@H]3c3cccnc3)c(=O)c2=O)C1 [Example 164, (2S,3S)-N-(14-((2-((4-(((1R,2S,5R)-5-(Isopropyl(methyl)amino)-2-((S)-2-oxo-3-((6-(trifluoromethyl)quinazolin-4-yl)amino)pyrrolidin-1-yl)cyclohexyl)amino)-4-oxobutyl)amino)-3,4-dioxocyclobut-1-en-1-yl)amino)-3,6,9,12-tetraoxatetradecyl)-1-methyl-5-oxo-2-(pyridin-3-yl)pyrrolidine-3-carboxamide] | – | 1 | – | 86 | 9.3225 |
| CC(C)N(C)[C@@H]1CC[C@H](N2CC[C@H](Nc3ncnc4ccc(C(F)(F)F)cc34)C2=O)[C@H](NC(=O)CCCCCCCCC(=O)NCCCCCCNC(=O)[C@H]2CC(=O)N(C)[C@@H]2c2cccnc2)C1 [Example 166, N1-((1R,2S,5R)-5-(isopropyl(methyl)amino)-2-((S)-2-oxo-3-((6-(trifluoromethyl)quinazolin-4-yl)amino)pyrrolidin-1-yl)cyclohexyl)-N10-(6-((2S,3S)-1-methyl-5-oxo-2-(pyridin-3-yl)pyrrolidine-3-carboxamido)hexyl)decanediamide] | 0.501 | 1.26 | – | – | – |
| CC(C)N(C)[C@@H]1CC[C@H](N2CC[C@H](Nc3ncnc4ccc(C(F)(F)F)cc34)C2=O)[C@H](NC(=O)CCOCCOCCOCCNc2c(NCCCNC(=O)[C@H]3CC(=O)N(C)[C@@H]3c3cccnc3)c(=O)c2=O)C1 [Example 169, (2S,3S)-N-(3-((2-((2-(2-(2-(3-(((1R,2S,5R)-5-(Isopropyl(methyl)amino)-2-((S)-2-oxo-3-((6-(trifluoromethyl)quinazolin-4-yl)amino)pyrrolidin-1-yl)cyclohexyl)amino)-3-oxopropoxy)ethoxy)ethoxy)ethyl)amino)-3,4-dioxocyclobut-1-en-1-yl)amino)propyl)-1-methyl-5-oxo-2-(pyridin-3-yl)pyrrolidine-3-carboxamide] | – | 0.251 | – | 87 | 9.0085 |
| CC(C)N(C)[C@@H]1CC[C@H](N2CC[C@H](Nc3ncnc4ccc(C(F)(F)F)cc34)C2=O)[C@H](NC(=O)CCCC(=O)NCCCOCCCNC(=O)CCCNC(=O)[C@H]2CC(=O)N(C)[C@@H]2c2cccnc2)C1 [Example 173, N^1-((1R,2S,5R)-5-(Isopropyl(methyl)amino)-2-((S)-2-oxo-3-((6-(trifluoromethyl)quinazolin-4-yl)amino)pyrrolidin-1-yl)cyclohexyl)-N5-(3-(3-(4-((2S,3S)-1-methyl-5-oxo-2-(pyridin-3-yl)pyrrolidine-3-carboxamido)butanamido)propoxy)propyl)glutaramide] | – | 0.794 | – | 91 | 9.1415 |
| CC(C)N(C)[C@@H]1CC[C@H](N2CC[C@H](Nc3ncnc4ccc(C(F)(F)F)cc34)C2=O)[C@H](NC(=O)CCCC(=O)N[C@H]2CC[C@@H](CNC(=O)CCOCCNC(=O)[C@H]3CC(=O)N(C)[C@@H]3c3cccnc3)CC2)C1 [Example 179, N^1-((1R,2S,5R)-5-(isopropyl(methyl)amino)-2-((S)-2-oxo-3-((6-(trifluoromethyl)quinazolin-4-yl)amino)pyrrolidin-1-yl)cyclohexyl)-N^5-((1R,4S)-4-((3-(2-((2S,3S)-1-methyl-5-oxo-2-(pyridin-3-yl)pyrrolidine-3-carboxamido)ethoxy)propanamido)methyl)cyclohexyl)glutaramide] | – | 0.631 | – | 89.5 | 9.24 |
